Assay: stability testing of initial lyophilized ceftolozane pharmaceutical compositions, HPLC
Assay type: physicochemical
Conditions: certain lyophilized pharmaceutical compositions initially evaluated for intravenous administration
Excerpt: As disclosed herein, ceftolozane was unstable in certain lyophilized pharmaceutical compositions initially evaluated for intravenous administration. In particular, a decrease in ceftolozane purity and the formation of multiple additional related substances were detected in certain initial ceftolozane pharmaceutical compositions by peaks in […] (HPLC) after stability testing. This testing pointed to the need to develop novel ceftolozane formulations providing increased ceftolozane stability. […] Nor does this disclosure provide guidance on the formation of ceftolozane pharmaceutical compositions to increase ceftolozane purity during stability testing or control the relative amounts of ceftolozane related substances detected by HPLC peak formation during stability testing.

Structure (SMILES): Cn1c(N)c(NC(=O)NCCN)c[n+]1CC1=C(C(=O)O)N2C(=O)[C@@H](NC(=O)/C(=N\OC(C)(C)C(=O)[O-])c3nsc(N)n3)[C@H]2SC1 [ceftolozane, (6R,7R)-3-[(5-amino-4-{[(2-aminoethyl)carbamoyl]amino}-1-methyl-1H-pyrazol-2-ium-2-yl)methyl]-7-({(2Z)-2-(5-amino-1,2,4-thiadiazol-3-yl)-2-[(1-carboxy-1-methylethoxy)imino]acetyl}amino)-8-oxo-5-thia-1-azabicyclo[4.2.0]oct-2-ene-2-carboxylate]
- ceftolozane stability in lyophilized composition: unstable

— patent US20140274990A1, “CEFTOLOZANE PHARMACEUTICAL COMPOSITIONS” (Cubist Pharmaceuticals, Inc., priority 2013, published 2014)
